Results from patent US6454951B1, “Photosensitive composition” (priority 1996, dated 2002).

What was measured:
[1] = tested on: Vibrio anguillarum; experiment: Photo-inactivation of bacteria by visible light irradiation (cell survival); assay type: cell-based; details: in words
[2] = tested on: Escherichia coli; experiment: as above; details: in words

In the case of “Meso-di(N-methyl-4-pyridyl)diphenylporphine [Di(4-N-MPy)Ph2P]”, the “Effect of washing operations on photosensitizing efficiency” value ([1]; Gram-negative bacteria, FIG. 1, visible light) is reported as “less sensitive to washing and retains a high photoactivity”, the “Photo-inactivation compared with T4MPyP” value ([1]; Vibrio anguillarum, visible light) is reported as “more rapid and more intense photo-inactivation” and the “Photo-inactivation compared with T4MPyP” value [2] is reported as “more rapid and more intense photo-inactivation”.
